In paper PMC4980415 (Psychopharmacology, 2016):
pKi: −log10 of the molar value. Structures can show the parent of a compound that is named as a salt.

Experiments:
[1] = healthy volunteers and patients with schizophrenia; no reference given; cited from earlier work
[2] = system: late memory consolidation in male Wistar rats; assay: Novel object recognition (NOR): late consolidation, drug 3 h after T1; format: in vivo, rat; details: for Exploration time e1 (T1) / Exploration time e2 (T2): 3 h after T1
Procedure: (§1) The drug was administered, per os (po), by gavage to rats in a volume of 2 ml/kg body weight. Oral dosing solutions were prepared fresh daily. […] The pH of the dosing solution was adjusted to ~pH 5.5 by dropwise addition of 0.1 N NaOH in saline and volume adjusted by addition of saline in preparation for intraperitoneal (ip) dosing. […] Control treatments were always the vehicle solutions of the corresponding drugs.
(§2) The object recognition test was performed as described elsewhere (Ennaceur and Delacour [1988]; Akkerman et al. 2014). The apparatus consisted of a circular arena, 83 cm in diameter. Half of the 40-cm-high wall was made of gray polyvinyl chloride, the other half of transparent polyvinyl chloride. The light intensity was equal in the different parts of the apparatus, as fluorescent red tubes provided a constant illumination of about 20 lx on the floor of the apparatus. Two objects were placed in a symmetrical position at about 10 cm from the gray wall. Four different sets of objects were used. The different objects were (1) a cone consisting of a gray polyvinyl chloride base (maximal diameter 18 cm) with a collar on top made of brass (total height 16 cm), (2) a standard 1 L transparent glass bottle (diameter 10 cm, height 22 cm) filled with water, (3) a large metal cube (10.0 × 5.0 × 7.5 cm) with two holes (diameter 1.9 cm), and (4) a large aluminum cube with a tapering top (13.0 × 8.0 × 8.0 cm). The objects used in this study were carefully selected to be “novelty neutral,” that is to say the rats have no innate preference for one over the other. In all cases, objects were of sufficient size and weight that rats could not move the objects.
(§3) A testing session consisted of two trials. The duration of each trial was 3 min. During the first trial (T1), the apparatus contained two identical objects (samples). Rats were placed in the apparatus facing the wall at the middle of the front (transparent) segment. After the first exploration period, the rat was put back in its home cage. Subsequently, after a 24-h delay interval, the rat was put in the apparatus for the second trial (T2). The times spent in exploring each object during T1 and T2 were recorded manually using a personal computer.
(§4) Exploration was defined as follows: directing the nose to the object at a distance of no more than 2 cm and/or touching the object with the nose. Sitting on the object was not considered as exploratory behavior. In order to avoid the presence of olfactory cues, the objects were always thoroughly cleaned with a 70 % ethanol solution before each trial. All combinations and locations of objects were used in a balanced manner to reduce potential biases due to preferences for particular locations or objects.
(§5) During the first 2 weeks after animal arrival, the animals were handled daily. They were then adapted to the procedure over the period of 2 days by allowing them to explore the apparatus (without any objects) for 3 min twice each day. […] After this, the rats were assigned to treatment conditions in a balanced manner, thereby insuring an equal distribution of object combinations among the treatment conditions. […] In all experiments, a 24-h inter-trial interval was used. In all cases, the experimenter was unaware of the treatment conditions that were being tested.
(§6) The basic measure recorded was the time spent by each rat exploring an object during T1 and T2. The time spent in exploring the two identical samples was represented by “a1” and “a2.” The time spent in T2 in exploring the sample and new object was represented by “a” and “b,” respectively. The following variables were calculated: e1 = a1 + a2, e2 = a + b, and d2 = (b − a) / e2. The e1 and e2 are measures of the total exploration time of both objects during T1 and T2, respectively. Differences in exploration times between treatment conditions were analyzed using a t test or one-way ANOVA. […]

H3 (h), histamine = target: T1, H3 (h), histamine (Homo sapiens, UniProt Q9Y5N1); assay: Off-target binding, General SEP II panel; details: 10 μM ITI-214, mean of n = 2
T1 construct: Caliper Life Sciences (contract screen)

NK3 (h), neurokinin = target: T2, NK3 (h), neurokinin (Homo sapiens, UniProt P29371); assay: Off-target binding, General SEP II panel; details: 10 μM ITI-214, mean of n = 2
T2 construct: Caliper Life Sciences (contract screen)
T2 sequence (P29371 1-465): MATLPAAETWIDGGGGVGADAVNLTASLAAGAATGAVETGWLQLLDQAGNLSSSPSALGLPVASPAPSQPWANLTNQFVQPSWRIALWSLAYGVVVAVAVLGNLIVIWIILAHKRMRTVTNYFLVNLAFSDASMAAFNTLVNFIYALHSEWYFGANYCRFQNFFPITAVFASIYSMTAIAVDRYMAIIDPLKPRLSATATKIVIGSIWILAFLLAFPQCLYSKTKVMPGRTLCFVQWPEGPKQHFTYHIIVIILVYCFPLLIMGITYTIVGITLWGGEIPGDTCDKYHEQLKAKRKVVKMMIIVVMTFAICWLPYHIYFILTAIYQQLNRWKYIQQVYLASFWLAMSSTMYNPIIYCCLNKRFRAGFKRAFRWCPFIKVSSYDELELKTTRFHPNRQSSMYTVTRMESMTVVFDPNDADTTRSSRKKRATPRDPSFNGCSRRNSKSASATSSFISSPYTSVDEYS

[3] = system: early memory consolidation in male Wistar rats; assay: Novel object recognition (NOR): early consolidation, drug 4 min after T1; format: in vivo, rat; details: 4 min after T1 (head prints T2 +4 min)
Procedure: as §1, §2, §3, §4, §5, §6

PDE1 (bovine brain) = assay: PDE activity IMAP assay, bovine brain PDE1; format: biochemical; details: Fl-cGMP substrate, CaCl2/calmodulin
[4] = system: Alpha 1 (non-selective), adrenergic; assay: Off-target binding, General SEP II panel; details: 10 μM ITI-214, mean of n = 2
[5] = system: 70 key receptor, enzyme, and ion channel proteins; assay: 70-target diversity panel (SEP II), whole panel; format: binding; details: 10 μM, 70-target panel
[6] = system: Alpha 2 (non-selective), adrenergic; assay: Off-target binding, General SEP II panel; details: 10 μM ITI-214, mean of n = 2

T1 sequence (Q9Y5N1 whole entry): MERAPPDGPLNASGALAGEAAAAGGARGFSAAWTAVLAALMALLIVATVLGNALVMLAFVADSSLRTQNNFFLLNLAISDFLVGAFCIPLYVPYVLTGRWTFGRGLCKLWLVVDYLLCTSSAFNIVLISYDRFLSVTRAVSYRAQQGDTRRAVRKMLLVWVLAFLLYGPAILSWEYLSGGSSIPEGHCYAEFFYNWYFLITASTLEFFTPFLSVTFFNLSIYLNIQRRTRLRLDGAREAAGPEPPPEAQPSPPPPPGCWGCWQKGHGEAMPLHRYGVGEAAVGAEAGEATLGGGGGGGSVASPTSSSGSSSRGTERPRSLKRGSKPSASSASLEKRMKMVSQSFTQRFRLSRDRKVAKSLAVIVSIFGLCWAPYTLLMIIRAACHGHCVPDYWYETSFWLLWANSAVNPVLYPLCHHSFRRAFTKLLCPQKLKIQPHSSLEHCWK

Question: Which safety and tolerability [1] does the source give for `CN1C(=O)c2c(nn(Cc3ccc(-c4cccc(F)n4)cc3)c2Nc2ccccc2)N2C1=N[C@@H]1CCC[C@@H]12` [ITI-214, (6aR,9aS)-2-(4-(6-fluoropyridin-2-yl)benzyl)-5-methyl-3-(phenylamino)-5,6a,7,8,9,9a-hexahydrocyclopenta-[4,5]imidazo[1,2-a]pyrazolo[4,3-e]pyrimidin-4-(2H)-one phosphate salt] here?
Answer: Its safety and tolerability is “safe and well-tolerated”.

Question: What about the “Exploration time e1 (T1)” value ([2]; 0.1 mg/kg po) of the same molecule?
Answer: Its value is 26.20 (1.95) s.

Question: What about the “Exploration time e2 (T2)” value ([2]; 0.1 mg/kg po) of the same molecule?
Answer: The value was 32.81 (2.24) s.

Question: What about the “Exploration time e1 (T1)” value ([2]; 0.3 mg/kg po) of the same molecule?
Answer: Its value is 29.36 (3.22) s.

Question: What about the “Exploration time e2 (T2)” value ([2]; 0.3 mg/kg po) of the same molecule?
Answer: The value was 29.64 (2.15) s.

Question: What about the “Exploration time e1 (T1)” value ([2]; 1 mg/kg po) of the same molecule?
Answer: The value was 25.93 (1.53) s.

Question: What about the “Exploration time e2 (T2)” value ([2]; 1 mg/kg po) of the same molecule?
Answer: Its value is 27.86 (2.43) s.

Question: And the “Exploration time e1 (T1)” value ([2]; 3 mg/kg po)?
Answer: The value was 25.62 (1.89) s.

Question: And the “Exploration time e2 (T2)” value ([2]; 3 mg/kg po)?
Answer: The value was 28.34 (2.95) s.

Question: And the “effect on exploratory behavior” value ([2]; early and late consolidation experiments)?
Answer: Its value is “no effects on exploratory behavior”.

Question: And the “full effective dose (d2 different from chance and from vehicle), late consolidation” value ([2]; po 3 h after T1)?
Answer: Its value is 1 mg/kg.

Question: What about the “% Binding” value (H3 (h), histamine) of the same molecule?
Answer: Its value is 32.54%.

Question: What about the “% Binding” value (NK3 (h), neurokinin) of the same molecule?
Answer: The value was 64.65%.

Question: What about the “Exploration time e1 (T1)” value ([3]; 1 mg/kg po) of the same molecule?
Answer: Its value is 26.36 (1.93) s.

Question: What about the “Exploration time e2 (T2)” value ([3]; 1 mg/kg po) of the same molecule?
Answer: The value was 29.66 (1.94) s.

Question: What about the “Exploration time e1 (T1)” value ([3]; 3 mg/kg po) of the same molecule?
Answer: The value was 25.02 (2.20) s.

Question: And the “Exploration time e2 (T2)” value ([3]; 3 mg/kg po)?
Answer: Its value is 30.55 (1.84) s.

Question: What about the “Exploration time e1 (T1)” value ([3]; 10 mg/kg po) of the same molecule?
Answer: The value was 30.01 (1.62) s.

Question: What about the “Exploration time e2 (T2)” value ([3]; 10 mg/kg po) of the same molecule?
Answer: The value was 31.35 (1.71) s.

Question: And the pKi (PDE1 (bovine brain))?
Answer: The pKi was 10.24.

Question: And the “% Binding” value [4]?
Answer: The value was 40.90%.

Question: And the “number of panel targets showing >50 % binding” value [5]?
Answer: Its value is 4.

Question: And the “% Binding” value [6]?
Answer: Its value is 34.94%.
